Measurements from US10422788B2, “Profiling peptides and methods for sensitivity profiling” (Tolero Pharmaceuticals, Inc., priority 2016, dated 2019).

Legend:
[1] = system: THP-1; assay: SEQ ID NO: 14 assay (Example 5, DiOC6 flow cytometry); assay type: cell-based; settings: non-permeabilized, DiOC6 MFI vs CCCP and water
[2] = system: U-937; assay: as above; assay type: cell-based; settings: non-permeabilized, DiOC6 MFI vs CCCP and water
[3] = system: MOLM-13 and OCI-AML3 cells; assay: Whole cell assay, JC-1 mitochondrial potential, permeabilized and non-permeabilized cells; assay type: cell-based; settings: 100 μM, normalized mitochondrial potential
Experimental: (§1) Briefly, frozen MOLM-13 and OCI-AML3 cell stocks were rapidly thawed, and cell viability was determined by Trypan Blue exclusion. Cells were washed in PBS and resuspended in DTEB (or MEB) buffer (135 mM Trehalose [or 150 mM Mannitol], 10 mM HEPES, 50 mM KCl, 20 μMI EGTA, 20 μM EDTA, 0.1% BSA, and 5 mM succinate). The profiling peptides and NOXA ([…]; SEQ ID NO:16) were reconstituted in water to make working solutions allowing for final concentrations of: SEQ ID NO:1 (100 μM), SEQ ID NO:14 (100 μM), SEQ ID NO:15 (100 μM), and NOXA (100 μM). […] Profiling peptides, controls, or NOXA (for comparison purposes) were first added to a microplate. Cells (4×10^5) resuspended in DTEB or MEB buffers were then added to a staining solution ([…], 40 μM JC-1, 1 M 2-mercaptoethanol, DTEB or MEB buffer), before being added to the wells of the microplate in the above (for non-digitonin-treated samples, digitonin was not added to the staining solution above). The mixture was then incubated for up to 2 hours at 30° C., in order for cell permeabilization (if needed), delivery of peptides or compounds, and mitochondrial depolarization to occur. Fluorescence signal of each well was assessed using an Envision multilabel plate reader at Ex475/Em530 and Ex530/Em595. […]

[4] = system: subject samples (AML blast cells); assay: SEQ ID NO: 14 assay (Example 5) on subject samples; assay type: cell-based, human
Experimental: (§2) Leukocytes are isolated from primary bone marrow aspirates using ficoll preparation. Leukocytes may be fresh or frozen. If frozen, the sample is thawed prior to testing. Incubate the sample in RPMI with DNase 1 in 37° C. incubator for 60 minutes. Cells are then pelleted, blocked in PBS with 1% BSA for 15 minutes on ice, followed by staining for 30 minutes on ice in the dark. After staining, cells are pelleted and resuspended in DTEB with Ryanodine (30 nM) and Oligomycin. After incubating in a 37° C. incubator for 30 minutes, the sample is separated into fluorescent-activated cell sorting (FACS) tubes and treated with either water (negative control), CCCP (positive control) or SEQ ID NO:14 (subject dependency) and incubated in a 37° incubator for 60 minutes. DiOC6, a cationic mitochondrial dye is then added and incubated for 60 minutes in a 37° C. incubator. The cells are then analyzed via flow cytometry. Blast cells are isolated by gating on the CD45 dim, CD13, CD33 and CD34 high population of each sample. (See FIG. 3). Where indicated, cells may be further gated using CD3 and CD20. Dependency values are calculated using the median fluorescent intensity (MFI) of DiOC6 in each sample according to the following equation: […]

[5] = system: KG-1; assay: SEQ ID NO: 14 assay (Example 5, DiOC6 flow cytometry); assay type: cell-based; settings: non-permeabilized, DiOC6 MFI vs CCCP and water
[6] = system: MV4-11; assay: as above; assay type: cell-based; settings: non-permeabilized, DiOC6 MFI vs CCCP and water
Experimental: as §2
NOXA assay results were compared to the results of the assay described in Example 5.

[7] = system: MOLM-13; assay: as above; assay type: cell-based; settings: non-permeabilized, DiOC6 MFI vs CCCP and water
[8] = system: OCI-AML3; assay: as above; assay type: cell-based; settings: non-permeabilized, DiOC6 MFI vs CCCP and water
[9] = system: HL-60; assay: as above; assay type: cell-based; settings: non-permeabilized, DiOC6 MFI vs CCCP and water
[10] = system: MOLM-13 cells; assay: Whole cell assay, JC-1 mitochondrial potential, cells lacking digitonin (FIG. 1B); assay type: cell-based; settings: 100 μM peptide, no digitonin
Experimental: as §1

[11] = Sample # 17, subject treated with FLAM, complete response
[12] = Sample # 18, subject treated with FLAM, complete response
[13] = Sample # 19, subject treated with FLAM, complete response

## YGRKKRRQRRRGGGRPEIWMTQGLRRLGDEINAYYAR (profiling peptide sequence) [SEQ ID NO:14]
[1]
  SEQ ID NO: 14 Dependency %: 11.70%
[2]
  SEQ ID NO: 14 Dependency %: 10.1%
[3]
  activity in the absence of digitonin compared to Mcl-1 binding domain alone or SEQ ID NO:15: superior activity
[4]; Sample # 1
  SEQ ID NO: 14 Dependency %: 18.0%
  SEQ ID NO: 14 Result (Pos/Neg): Neg (Concordance based on cutoff of ≥40% MCL-1 Dependency for both methods.)
[4]; Sample # 2
  SEQ ID NO: 14 Dependency %: 44.9%
  SEQ ID NO: 14 Result (Pos/Neg): Pos (Concordance based on cutoff of ≥40% MCL-1 Dependency for both methods.)
[4]; Sample # 3
  SEQ ID NO: 14 Dependency %: 53.8%
  SEQ ID NO: 14 Result (Pos/Neg): Pos (Concordance based on cutoff of ≥40% MCL-1 Dependency for both methods.)
[4]; Sample # 4
  SEQ ID NO: 14 Dependency %: 26.7%
  SEQ ID NO: 14 Result (Pos/Neg): Neg (Concordance based on cutoff of ≥40% MCL-1 Dependency for both methods.)
[4]; Sample # 5
  SEQ ID NO: 14 Dependency %: 70.8%
  SEQ ID NO: 14 Result (Pos/Neg): Pos (Concordance based on cutoff of ≥40% MCL-1 Dependency for both methods.)
[4]; Sample # 6
  SEQ ID NO: 14 Dependency %: 44.3%
  SEQ ID NO: 14 Result (Pos/Neg): Pos (Concordance based on cutoff of ≥40% MCL-1 Dependency for both methods.)
[4]; Sample # 7
  SEQ ID NO: 14 Dependency %: 48.1%
  SEQ ID NO: 14 Result (Pos/Neg): Pos (Concordance based on cutoff of ≥40% MCL-1 Dependency for both methods.)
[4]; Sample # 8
  SEQ ID NO: 14 Dependency %: 17.0%
  SEQ ID NO: 14 Result (Pos/Neg): Neg (Concordance based on cutoff of ≥40% MCL-1 Dependency for both methods.)
[4]; Sample # 9
  SEQ ID NO: 14 Dependency %: 71.8%
  SEQ ID NO: 14 Result (Pos/Neg): Pos (Concordance based on cutoff of ≥40% MCL-1 Dependency for both methods.)
[4]; Sample # 10
  SEQ ID NO: 14 Dependency %: 0.0%
  SEQ ID NO: 14 Result (Pos/Neg): Neg (Concordance based on cutoff of ≥40% MCL-1 Dependency for both methods.)
[4]; Sample # 11
  SEQ ID NO: 14 Dependency %: 40.6%
  SEQ ID NO: 14 Result (Pos/Neg): Pos (Concordance based on cutoff of ≥40% MCL-1 Dependency for both methods.)
[4]; Sample # 12
  SEQ ID NO: 14 Dependency %: 38.3%
  SEQ ID NO: 14 Result (Pos/Neg): Neg (Concordance based on cutoff of ≥40% MCL-1 Dependency for both methods.)
[4]; Sample # 13
  SEQ ID NO: 14 Dependency %: 35.2%
  SEQ ID NO: 14 Result (Pos/Neg): Neg (Concordance based on cutoff of ≥40% MCL-1 Dependency for both methods.)
[4]; Sample # 14
  SEQ ID NO: 14 Dependency %: 2.6%
  SEQ ID NO: 14 Result (Pos/Neg): Neg (Concordance based on cutoff of ≥40% MCL-1 Dependency for both methods.)
[4]; Sample # 15
  SEQ ID NO: 14 Dependency %: 0.0%
  SEQ ID NO: 14 Result (Pos/Neg): Neg (Concordance based on cutoff of ≥40% MCL-1 Dependency for both methods.)
[4]; Sample # 16
  SEQ ID NO: 14 Dependency %: 0.1%
  SEQ ID NO: 14 Result (Pos/Neg): Neg (Concordance based on cutoff of ≥40% MCL-1 Dependency for both methods.)
[4]; [11]
  SEQ ID NO: 14 Dependency %: 62.4%
  SEQ ID NO: 14 Result (Pos/Neg): Pos (Concordance based on cutoff of ≥40% MCL-1 Dependency for both methods.)
[4]; [12]
  SEQ ID NO: 14 Dependency %: 55.0%
  SEQ ID NO: 14 Result (Pos/Neg): Pos (Concordance based on cutoff of ≥40% MCL-1 Dependency for both methods.)
[4]; [13]
  SEQ ID NO: 14 Dependency %: 27.8%
  SEQ ID NO: 14 Result (Pos/Neg): Neg (Concordance based on cutoff of ≥40% MCL-1 Dependency for both methods.)
[5]
  SEQ ID NO: 14 Dependency %: 0.0%
[6]
  SEQ ID NO: 14 Dependency %: 5.0%
[7]
  SEQ ID NO: 14 Dependency %: 20.78%
[8]
  SEQ ID NO: 14 Dependency %: 19.40%
[9]
  SEQ ID NO: 14 Dependency %: 24.5%
[10]
  activity compared to the positive control (FCCP): exceeded the activity of the positive control
